± gives the uncertainty stated by the source.
Experiment: xn = mol fraction of the nth substance listed

CC1CCCCC1 + CCCCCCCCCCCC
viscosity [mPa·s], 101 kPa
Conditions | x1 = 0.1004 | x1 = 0.2017 | x1 = 0.2968 | x1 = 0.406 | x1 = 0.5059 | x1 = 0.6011 | x1 = 0.6993 | x1 = 0.7989 | x1 = 0.898
298.15 K | 1.303 ± 0.022 | – | – | 1.084 ± 0.018 | 1.014 ± 0.017 | 0.948 ± 0.016 | 0.88 ± 0.015 | 0.811 ± 0.014 | 0.744 ± 0.013
303.15 K | 1.186 ± 0.02 | 1.124 ± 0.019 | 1.067 ± 0.018 | 1.004 ± 0.017 | 0.94 ± 0.016 | – | 0.821 ± 0.014 | 0.756 ± 0.013 | 0.694 ± 0.012
308.15 K | 1.096 ± 0.018 | 1.037 ± 0.018 | 0.981 ± 0.017 | 0.919 ± 0.016 | 0.862 ± 0.015 | 0.809 ± 0.014 | 0.755 ± 0.013 | 0.701 ± 0.012 | 0.647 ± 0.012

CCOC(=O)c1ccccc1 + COc1ccccc1
viscosity [mPa·s], 101 kPa
Conditions | x1 = 0.0786 | x1 = 0.1616 | x1 = 0.2448 | x1 = 0.3356 | x1 = 0.4336 | x1 = 0.5357 | x1 = 0.6386 | x1 = 0.7505 | x1 = 0.8709
303.15 K | 0.973 ± 0.02 | 1.026 ± 0.02 | 1.085 ± 0.02 | 1.156 ± 0.021 | 1.229 ± 0.021 | 1.323 ± 0.022 | 1.416 ± 0.023 | 1.521 ± 0.023 | 1.631 ± 0.024
308.15 K | 0.896 ± 0.019 | 0.949 ± 0.02 | 1.007 ± 0.02 | 1.071 ± 0.02 | 1.143 ± 0.021 | 1.224 ± 0.021 | 1.311 ± 0.022 | 1.404 ± 0.022 | 1.504 ± 0.023
313.15 K | 0.805 ± 0.019 | 0.856 ± 0.019 | 0.908 ± 0.019 | 0.963 ± 0.02 | 1.026 ± 0.02 | 1.101 ± 0.02 | 1.174 ± 0.021 | 1.256 ± 0.021 | 1.342 ± 0.022

N#CCc1ccccc1 + ClC(Cl)C(Cl)Cl
Conditions | viscosity [mPa·s]
313.15 K, 101 kPa, x1 = 0.7131 | 1.645 ± 0.021

CCOC(=O)c1ccccc1 + CCCCCCCC
101 kPa
Conditions | viscosity [mPa·s]
298.15 K, x2 = 0.0634 | 1.743 ± 0.054
298.15 K, x2 = 0.1034 | 1.624 ± 0.051
298.15 K, x2 = 0.1463 | 1.503 ± 0.047
298.15 K, x2 = 0.1843 | 1.405 ± 0.044
298.15 K, x2 = 0.2315 | 1.299 ± 0.041
298.15 K, x2 = 0.2774 | 1.203 ± 0.038
298.15 K, x2 = 0.3224 | 1.125 ± 0.035
298.15 K, x2 = 0.4189 | 0.973 ± 0.031
298.15 K, x2 = 0.4608 | 0.92 ± 0.029
298.15 K, x2 = 0.5113 | 0.861 ± 0.027
298.15 K, x2 = 0.5549 | 0.813 ± 0.026
298.15 K, x2 = 0.6018 | 0.767 ± 0.024
298.15 K, x2 = 0.6476 | 0.726 ± 0.023
298.15 K, x2 = 0.6978 | 0.686 ± 0.022
298.15 K, x2 = 0.7588 | 0.644 ± 0.02
298.15 K, x2 = 0.8037 | 0.616 ± 0.02
298.15 K, x2 = 0.8646 | 0.583 ± 0.019
298.15 K, x2 = 0.9214 | 0.556 ± 0.018
303.15 K, x1 = 0.1144 | 0.526 ± 0.011
303.15 K, x1 = 0.2227 | 0.58 ± 0.012
303.15 K, x1 = 0.3291 | 0.655 ± 0.014
303.15 K, x1 = 0.4327 | 0.738 ± 0.016
303.15 K, x1 = 0.532 | 0.837 ± 0.018
303.15 K, x1 = 0.6312 | 0.961 ± 0.02
303.15 K, x1 = 0.7281 | 1.11 ± 0.023
303.15 K, x1 = 0.8205 | 1.29 ± 0.027
303.15 K, x1 = 0.9123 | 1.505 ± 0.031
308.15 K, x1 = 0.1144 | 0.499 ± 0.011
308.15 K, x1 = 0.2227 | 0.552 ± 0.012
308.15 K, x1 = 0.3291 | 0.616 ± 0.013
308.15 K, x1 = 0.4327 | 0.697 ± 0.015
308.15 K, x1 = 0.532 | 0.786 ± 0.017
308.15 K, x1 = 0.6312 | 0.896 ± 0.019
308.15 K, x1 = 0.7281 | 1.033 ± 0.022
308.15 K, x1 = 0.8205 | 1.197 ± 0.025
308.15 K, x1 = 0.9123 | 1.385 ± 0.029
308.15 K, x2 = 0.0649 | 1.485 ± 0.046
308.15 K, x2 = 0.1092 | 1.382 ± 0.043
308.15 K, x2 = 0.1488 | 1.3 ± 0.041
308.15 K, x2 = 0.193 | 1.212 ± 0.038
308.15 K, x2 = 0.2347 | 1.13 ± 0.035
308.15 K, x2 = 0.2789 | 1.054 ± 0.033
308.15 K, x2 = 0.3252 | 0.98 ± 0.031
308.15 K, x2 = 0.3696 | 0.919 ± 0.029
308.15 K, x2 = 0.4206 | 0.854 ± 0.027
308.15 K, x2 = 0.4626 | 0.807 ± 0.025
308.15 K, x2 = 0.5118 | 0.757 ± 0.024
308.15 K, x2 = 0.5624 | 0.709 ± 0.022
308.15 K, x2 = 0.5958 | 0.682 ± 0.022
308.15 K, x2 = 0.6528 | 0.639 ± 0.02
308.15 K, x2 = 0.7049 | 0.605 ± 0.019
308.15 K, x2 = 0.756 | 0.575 ± 0.018
308.15 K, x2 = 0.8027 | 0.55 ± 0.018
308.15 K, x2 = 0.8565 | 0.525 ± 0.017
308.15 K, x2 = 0.9175 | 0.501 ± 0.016
313.15 K, x1 = 0.1144 | 0.468 ± 0.01
313.15 K, x1 = 0.2227 | 0.516 ± 0.011
313.15 K, x1 = 0.3291 | 0.574 ± 0.012
313.15 K, x1 = 0.4327 | 0.649 ± 0.014
313.15 K, x1 = 0.532 | 0.732 ± 0.015
313.15 K, x1 = 0.6312 | 0.835 ± 0.018
313.15 K, x1 = 0.7281 | 0.961 ± 0.02
313.15 K, x1 = 0.8205 | 1.105 ± 0.023
313.15 K, x1 = 0.9123 | 1.277 ± 0.027
318.15 K, x2 = 0.0385 | 1.272 ± 0.04
318.15 K, x2 = 0.0833 | 1.188 ± 0.037
318.15 K, x2 = 0.1243 | 1.117 ± 0.035
318.15 K, x2 = 0.1716 | 1.038 ± 0.033
318.15 K, x2 = 0.2145 | 0.972 ± 0.03
318.15 K, x2 = 0.263 | 0.905 ± 0.028
318.15 K, x2 = 0.3062 | 0.85 ± 0.027
318.15 K, x2 = 0.356 | 0.793 ± 0.025
318.15 K, x2 = 0.4002 | 0.747 ± 0.024
318.15 K, x2 = 0.4505 | 0.698 ± 0.022
318.15 K, x2 = 0.4957 | 0.662 ± 0.021
318.15 K, x2 = 0.5474 | 0.622 ± 0.02
318.15 K, x2 = 0.5939 | 0.592 ± 0.019
318.15 K, x2 = 0.6472 | 0.56 ± 0.018
318.15 K, x2 = 0.6945 | 0.536 ± 0.017
318.15 K, x2 = 0.7483 | 0.51 ± 0.016
318.15 K, x2 = 0.7987 | 0.491 ± 0.016
318.15 K, x2 = 0.8549 | 0.469 ± 0.015
318.15 K, x2 = 0.9034 | 0.452 ± 0.014

CC1CCCCC1 + C1CCOC1
303.15 K, 101.33 kPa
Conditions | viscosity [mPa·s]
x2 = 0.111 | 0.604 ± 0.005
x2 = 0.2072 | 0.576 ± 0.005
x2 = 0.3062 | 0.548 ± 0.005
x2 = 0.404 | 0.525 ± 0.005
x2 = 0.4829 | 0.507 ± 0.005
x2 = 0.504 | 0.503 ± 0.005
x2 = 0.6018 | 0.487 ± 0.005
x2 = 0.7067 | 0.47 ± 0.004
x2 = 0.9006 | 0.447 ± 0.004

[Li+].[O-][Cl+3]([O-])([O-])[O-] + CC#N
viscosity [mPa·s], 101 kPa
Conditions | x1 = 0.0128 | x1 = 0.0255 | x1 = 0.0301 | x1 = 0.536
296.15 K | 0.444 ± 0.012 | – | – | 0.66 ± 0.017
297.15 K | – | 0.53 ± 0.014 | – | –
313.15 K | 0.399 ± 0.011 | 0.473 ± 0.013 | 0.958 ± 0.025 | 0.628 ± 0.017

CNS(C)(=O)=O + CCO
303.15 K, 101.33 kPa
Conditions | viscosity [mPa·s]
x1 = 0.1006 | 1.105 ± 0.029
x1 = 0.201 | 1.3 ± 0.034
x1 = 0.2995 | 1.58 ± 0.042
x1 = 0.3949 | 1.871 ± 0.049
x1 = 0.4923 | 2.303 ± 0.06
x1 = 0.5949 | 2.888 ± 0.076
x1 = 0.6892 | 3.612 ± 0.095
x1 = 0.7757 | 4.493 ± 0.12
x1 = 0.8905 | 6.09 ± 0.16

O=C(O)/C=C\C(=O)O + C[N+](C)(C)CCO.[Cl-]
viscosity [mPa·s], 101.3 kPa
Conditions | 293.2 K | 303.2 K | 313.2 K
x2 = 0.49 | – | 8065 ± 1500 | 4196 ± 730
x2 = 0.597 | 7984 ± 1600 | 4891 ± 870 | 2579 ± 610
x2 = 0.669 | 4183 ± 730 | 2672 ± 450 | 1488 ± 250

CCOC(=O)c1ccccc1 + COCCOCCOC
viscosity [mPa·s], 101.33 kPa
Conditions | x2 = 0.1021 | x2 = 0.2028 | x2 = 0.3004 | x2 = 0.4044 | x2 = 0.5041 | x2 = 0.6032 | x2 = 0.7035 | x2 = 0.8017 | x2 = 0.9022
298.15 K | 1.805 ± 0.021 | 1.694 ± 0.02 | 1.59 ± 0.019 | 1.485 ± 0.018 | 1.389 ± 0.017 | 1.301 ± 0.016 | 1.216 ± 0.015 | 1.134 ± 0.014 | 1.056 ± 0.013
303.15 K | 1.629 ± 0.02 | 1.533 ± 0.018 | 1.442 ± 0.017 | 1.35 ± 0.016 | 1.266 ± 0.016 | 1.189 ± 0.015 | 1.111 ± 0.014 | 1.039 ± 0.013 | 0.967 ± 0.012
308.15 K | 1.476 ± 0.018 | 1.39 ± 0.017 | 1.311 ± 0.016 | 1.231 ± 0.015 | 1.157 ± 0.014 | 1.088 ± 0.014 | 1.02 ± 0.013 | 0.957 ± 0.012 | 0.895 ± 0.012
313.15 K | 1.342 ± 0.016 | 1.268 ± 0.016 | 1.198 ± 0.015 | 1.126 ± 0.014 | 1.062 ± 0.013 | 1 ± 0.013 | 0.94 ± 0.012 | 0.883 ± 0.011 | 0.829 ± 0.011
318.15 K | 1.228 ± 0.015 | 1.161 ± 0.014 | 1.098 ± 0.014 | 1.035 ± 0.013 | 0.976 ± 0.012 | 0.922 ± 0.012 | 0.868 ± 0.011 | 0.818 ± 0.011 | 0.77 ± 0.01
